Measurements from US8809333B2, “Imidazole, pyrazole, and triazole derivatives useful as antibacterial agents” (Pfizer Inc., priority 2011, dated 2014).
Values after ≈ are worked out from the molar mass of the structure shown. Where two headings read alike, the source gives them in different places.

How the values were obtained:
[1] = tested on: Acinetobacter baumannii/haemolyticus: Multidrug-resistant clinical isolate (AB-3167); assay: MIC determination (CLSI), AB-3167; assay type: cell-based; settings: Acinetobacter baumannii/haemolyticus multidrug-resistant clinical isolate; overnight incubation; lower of duplicate values; read-out: AB-3167 (MIC)
Method: (§1) The in vitro antibacterial activity of compounds described in the Examples was evaluated by minimum inhibitory concentration (MIC) testing according to Clinical and Laboratory Standards Institute (CLSI) Guidelines. See: Clinical and Laboratory Standards Institute. Methods for Dilution Antimicrobial Susceptibility Tests for Bacteria that Grow Aerobically; Approved Standard-Eighth Edition. CLSI document M7-A8 [ISBN 1-56238-689-1]. Clinical and Laboratory Standards Institute, 940 West Valley Road, Suite 1400, Wayne, Pa. 19087-1898 USA, 2006; also Clinical and Laboratory Standards Institute. Performance Standards for Antimicrobial Susceptibility Testing; Twentieth Informational Supplement. CLSI document M100-S20 [ISBN1-56238-716-2]. Clinical and Laboratory Standards Institute.
(§2) The MIC determination is a standard laboratory method for evaluating the antibacterial activity of a compound. The MIC represents the lowest drug concentration that inhibits visible growth of bacteria following overnight incubation. […] Typically, the drug concentration range is broken down into 2-fold increments (e.g. 0.06 μg/mL, 0.12 μg/mL. 0.25 μg/mL, 0.50 μg/mL, 1.0 μg/mL, etc.) and the various drug concentrations are all individually incubated overnight with approximately the same number of bacteria. The MIC is then determined by visually inspecting the drug effect at each concentration, and identifying the lowest drug concentration that has inhibited bacterial growth as compared to the drug free control. Typically, bacteria continue to grow at drug concentrations lower than the MIC and don't grow at concentrations at and above the MIC.
(§3) The MIC values described in Tables 2 and 3 below were derived from assays wherein each test compound was evaluated in duplicate. In cases where the duplicate values varied by 0-2-fold, the lower of the two values was reported below. Generally speaking, if the duplicate values varied by more than 2-fold, the assay was considered non-valid and was repeated until the variation between duplicate runs was ≦2-fold. In line with the CLSI guidelines referred to above, both control organisms and reference compounds were utilized in each MIC assay to provide proper quality control. MIC values generated with these control organisms and reference compounds were required to fall within a defined range for the assay to be considered valid and be included herein. Those skilled in the art will recognize that MIC values can and do vary from experiment to experiment. Generally speaking, it should be recognized that MIC values often vary +/−2-fold from experiment to experiment. While a single MIC is reported for each compound and each microorganism, the reader should not conclude that each compound was only tested once. Several of the compounds were subjected to multiple tests. The data reported in Tables 2 and 3 is reflective of the compounds relative activity and different MICs may have been generated on these occasions in line with the guidelines described above.
(§4) The following bacterial strains were used in these MIC determinations:
(1) Acinetobacter baumannii/haemolyticus: Multidrug-resistant clinical isolate labeled as AB-3167 in Table 5;

[2] = tested on: Pseudomonas aeruginosa UI-18: Wild-type (PA-7); assay: MIC determination (CLSI), PA-7; assay type: cell-based; settings: Pseudomonas aeruginosa UI-18 wild-type; overnight incubation; lower of duplicate values; read-out: PA-7 (MIC)
Method: as §1, §2, §3, §4
(4) Pseudomonas aeruginosa UI-18: Wild-type, labeled as PA-7 in Table 5;

[3] = tested on: Klebsiella pneumoniae: Ciprofloxacin-resistant isolate, expresses ESBL, clinical isolate (KP-3700); assay: MIC determination (CLSI), KP-3700; assay type: cell-based; settings: overnight incubation, lower of duplicate values
Method: as §1, §2, §3, §4
(3) Klebsiella pneumoniae: Ciprofloxacin-resistant isolate, expresses extended-spectrum beta-lactamases (ESBL), clinical isolate, labeled as KP-3700 in Table 5.

[4] = tested on: Escherichia coli EC-1: VOGEL, mouse virulent; assay: MIC determination (CLSI), EC-1; assay type: cell-based; settings: Escherichia coli, read-out: EC-1 (MIC)
Method: as §1, §2, §3, §4
(2) Escherichia coli EC-1: VOGEL, mouse virulent labeled as EC-1 in Table 5;

[5] = biological target: T1, Pseudomonas aeruginosa LpxC enzyme (Pseudomonas aeruginosa, UniProt P47205); assay: IC50 assay, LpxC enzyme from P. aeruginosa (BioTrove RapidFire mass spectrometry); assay type: biochemical
T1 construct: made in house; host or cells: E. coli
T1 sequence (P47205 1-303): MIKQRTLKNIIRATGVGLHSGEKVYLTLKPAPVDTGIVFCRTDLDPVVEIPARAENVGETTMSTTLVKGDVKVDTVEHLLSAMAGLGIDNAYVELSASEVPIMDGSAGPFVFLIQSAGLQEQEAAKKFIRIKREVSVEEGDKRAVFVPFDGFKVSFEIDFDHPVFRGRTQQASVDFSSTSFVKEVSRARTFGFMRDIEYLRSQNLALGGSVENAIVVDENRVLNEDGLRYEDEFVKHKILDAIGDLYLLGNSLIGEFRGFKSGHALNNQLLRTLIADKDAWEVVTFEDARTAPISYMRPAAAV
Method: In order to assess the compounds biological activity, selected in-vitro assays were conducted on selected compounds of Formula I. One of the assays measured the compounds ability to disrupt the synthesis of lipopolysaccharide, LPS, which is a component of the outer membrane of Gram-negative bacteria. Disruption of this synthesis is lethal to the bacteria. The assay determined the compound's ability to inhibit LpxC, which is the first enzyme in the biosynthetic pathway for LPS (measured as IC50). Additionally, MICs (minimal inhibitory concentrations) were determined for several bacteria. The specific protocols are described below:
A) IC50 Assay, LpxC Enzyme from P. Aeruginosa Labeled as PA LpxC Enzyme IC50):
At the end of 1 hour, 5 ul of 1 N HCl was added to stop the enzyme reaction, the plates were centrifuged, and then processed with the BioTrove Rapidfire HTMS Mass Spectrometry System. A no-enzyme control was used in calculating the IC50 values from the percent conversion values.

[6] = P. aeruginosa LpxC enzyme 0.1 nM, 25° C., 1 hour, pH 8.0, read-out: PA: IC50

SMILES | MIC [1] | MIC [2] | KP-3700 (MIC) [3] | MIC [4] | IC50 [5, 6] | IC50 [5]
C[C@@](CCn1cnc(-c2ccccc2)c1)(C(=O)NO)S(C)(=O)=O (stereo in doubt) [Example 13, N-hydroxy-2-methyl-2-(methylsulfonyl)-4-(4-phenyl-1H-imidazol-1-yl)butanamide] | > 64 µg/mL | > 64 µg/mL | >64.0 µg/mL | > 64 µg/mL | – | –
C[C@@](CCn1cc(C2=CCCCC2)cn1)(C(=O)NO)S(C)(=O)=O [Example 1, (2R)-4-[4-(cyclohex-1-en-1-yl)-1H-pyrazol-1-yl]-N-hydroxy-2-methyl-2-(methylsulfonyl)butanamide] | > 64 µg/mL | 1 µg/mL (≈ 2.93 µM) | 16 µg/mL | 8 µg/mL (≈ 23.4 µM) | – | –
C[C@@](CCn1cc(C2CCCCC2)cn1)(C(=O)NO)S(C)(=O)=O [Example 2, (2R)-4-(4-cyclohexyl-1H-pyrazol-1-yl)-N-hydroxy-2-methyl-2-(methylsulfonyl)butanamide] | > 64 µg/mL | 1 µg/mL (≈ 2.91 µM) | 64 µg/mL | 32 µg/mL (≈ 93.2 µM) | 0.752 nM | –
C[C@@](CCn1cc(C2CCCC2)cn1)(C(=O)NO)S(C)(=O)=O [Example 3, (2R)-4-(4-cyclopentyl-1H-pyrazol-1-yl)-N-hydroxy-2-methyl-2-(methylsulfonyl)butanamide] | 64 µg/mL (≈ 194 µM) | 8 µg/mL (≈ 24.3 µM) | 64 µg/mL | 64 µg/mL (≈ 194 µM) | 14.3 nM | –
Cc1nn(CC[C@](C)(C(=O)NO)S(C)(=O)=O)cc1-c1ccccc1 [Example 4, (2R)—N-hydroxy-2-methyl-4-(3-methyl-4-phenyl-1H-pyrazol-1-yl)-2-(methylsulfonyl)butanamide] | > 64 µg/mL | 8 µg/mL (≈ 22.8 µM) | 32 µg/mL | 8 µg/mL (≈ 22.8 µM) | 14.6 nM | –
Cc1cnn(CC[C@](C)(C(=O)NO)S(C)(=O)=O)c1 [Example 5, (2R)—N-hydroxy-2-methyl-4-(4-methyl-1H-pyrazol-1-yl)-2-(methylsulfonyl)butanamide] | > 64 µg/mL | 32 µg/mL (≈ 116 µM) | >64.0 µg/mL | > 64 µg/mL | > 100 nM | –
C[C@@](CCn1cc(-c2ccccc2)cn1)(C(=O)NO)S(C)(=O)=O [Example 6, (2R)—N-hydroxy-2-methyl-2-(methylsulfonyl)-4-(4-phenyl-1H-pyrazol-1-yl)butanamide] | > 64 µg/mL | 1 µg/mL (≈ 2.96 µM) | 64 µg/mL | 16 µg/mL (≈ 47.4 µM) | – | 1.61 nM
C[C@@](CCn1cc(C#N)cn1)(C(=O)NO)S(C)(=O)=O [Example 7, (2R)-4-(4-cyano-1H-pyrazol-1-yl)-N-hydroxy-2-methyl-2-(methylsulfonyl)butanamide] | > 64 µg/mL | > 64 µg/mL | >64.0 µg/mL | > 64 µg/mL | 620 nM | –
C[C@@](CCn1cc(-c2cnccn2)cn1)(C(=O)NO)S(C)(=O)=O [Example 8, (2R)—N-hydroxy-2-methyl-2-(methylsulfonyl)-4-[4-(pyrazin-2-yl)-1H-pyrazol-1-yl]butanamide] | > 64 µg/mL | > 64 µg/mL | >64.0 µg/mL | > 64 µg/mL | > 100 nM | –
C[C@@](CCn1cc(-c2cnc3ccccc3n2)cn1)(C(=O)NO)S(C)(=O)=O [Example 9, (2R)—N-hydroxy-2-methyl-2-(methylsulfonyl)-4-[4-(quinoxalin-2-yl)-1H-pyrazol-1-yl]butanamide] | > 64 µg/mL | > 64 µg/mL | >64.0 µg/mL | > 64 µg/mL | 19 nM | –
C[C@@](CCn1cc(-c2nc3ccccc3o2)cn1)(C(=O)NO)S(C)(=O)=O [Example 10, (2R)-4-[4-(1,3-benzoxazol-2-yl)-1H-pyrazol-1-yl]-N-hydroxy-2-methyl-2-(methylsulfonyl)butanamide] | 32 µg/mL (≈ 84.6 µM) | 32 µg/mL (≈ 84.6 µM) | >64.0 µg/mL | 32 µg/mL (≈ 84.6 µM) | 13.8 nM | –
C[C@@](CCn1cc(C#Cc2cccc(C#N)c2)cn1)(C(=O)NO)S(C)(=O)=O [Example 11, (2R)-4-{4-[(3-cyanophenyl)ethynyl]-1H-pyrazol-1-yl}-N-hydroxy-2-methyl-2-(methylsulfonyl)butanamide] | > 64 µg/mL | 16 µg/mL (≈ 41.4 µM) | 64 µg/mL | 32 µg/mL (≈ 82.8 µM) | 12.1 nM | –
C[C@@](CCn1cc(-c2ccc(-c3ncco3)cc2)cn1)(C(=O)NO)S(C)(=O)=O [Example 12, (2R)—N-hydroxy-2-methyl-2-(methylsulfonyl)-4-{4-[4-(1,3-oxazol-2-yl)phenyl]-1H-pyrazol-1-yl}butanamide] | – | – | – | – | 0.963 nM | –
C[C@@](CCn1cc(-c2ccccc2)nn1)(C(=O)NO)S(C)(=O)=O [Example 14, (2R)—N-hydroxy-2-methyl-2-(methylsulfonyl)-4-(4-phenyl-1H-1,2,3-triazol-1-yl)butanamide] | > 64 µg/mL | 2 µg/mL (≈ 5.91 µM) | 32 µg/mL | 32 µg/mL (≈ 94.6 µM) | – | 0.85 nM
Cc1c(-c2ccccc2)nnn1CC[C@](C)(C(=O)NO)S(C)(=O)=O [Example 15, (2R)—N-hydroxy-2-methyl-4-(5-methyl-4-phenyl-1H-1,2,3-triazol-1-yl)-2-(methylsulfonyl)butanamide] | > 64 µg/mL | 32 µg/mL (≈ 90.8 µM) | >64.0 µg/mL | > 64 µg/mL | 21.3 nM | –
C[C@@](CCn1cc(-c2ccc(F)c(F)c2F)nn1)(C(=O)NO)S(C)(=O)=O [Example 18, (2R)-N-hydroxy-2-methyl-2-(methylsulfonyl)-4-[4-(2,3,4-trifluorophenyl)-1H-1,2,3-triazol-1-yl]butanamide] | – | – | – | – | 3.29 nM | –
CC(CCn1cc(CSc2ccc(Br)cc2)nn1)(C(=O)NO)S(C)(=O)=O (stereo not shown) [Example 25, 4-(4-{[(4-bromophenyl)sulfanyl]methyl}-1H-1,2,3-triazol-1-yl)-N-hydroxy-2-methyl-2-(methylsulfonyl)butanamide] | – | – | – | – | 10.1 nM | –
CC(CCn1cc(-c2cn(Cc3ccccc3)cn2)cn1)(C(=O)NO)S(C)(=O)=O (stereo not shown) [Example 83, 4-[4-(1-benzyl-1H-imidazol-4-yl)-1H-pyrazol-1-yl]-N-hydroxy-2-methyl-2-(methylsulfonyl)butanamide] | – | – | – | – | > 100 nM | –
CC(CCn1cc(-c2cn(-c3ccc(F)cc3)cn2)cn1)(C(=O)NO)S(C)(=O)=O (stereo not shown) [Example 89, 4-{4-[1-(4-fluorophenyl)-1H-imidazol-4-yl]-1H-pyrazol-1-yl}-N-hydroxy-2-methyl-2-(methylsulfonyl)butanamide] | – | – | – | – | > 100 nM | –
